Test results: patent US8835403B2, “Algin oligosaccharides and the derivatives thereof as well as the manufacture and the use of the same” (priority 2004, dated 2014)

Columns and labels:
[1] = system: AD mice induced by Aβ1-40; assay: Morris water maze test of AD mice induced by Aβ1-40; assay type: in vivo; settings: for Escape latency (s) 1st day: 1st day of test; for Escape latency (s) 2nd day: 2nd day of test; for Escape latency (s) 3rd day: 3rd day of test; for Latency bias(%): probe trial, 4th day, within 60 s
Description: (§1) Male Balb/c mice (18-22 g, purchased from Laboratory Centre of Shandong University) are weighed and randomly assigned to six groups as follows: a control group, a model group, a low-concentration (15 mg/kg) 6-mer-treated group, a middle-concentration (30 mg/kg) 6-mer-treated group, a high-concentration (60 mg/kg) 6-mer-treated group, and a Huperzine A-treated (HBY, with a concentration of 0.2 mg/kg) group. The mice were oral administered with corresponding drugs on day 3 after grouping. The drugs were administered once a day consecutively with a dosage of 0.5 ml/20 g until the experiment is completed. The mice of control and model groups were simultaneously administered with an equivalent amount of normal saline.
On the 8th day after drug administration, mice are injected with aged Aβ1-40 except the vehicle group as the method of reference (Jhoo J H et al., β-amyloid (1-42)-induced learning and memory deficits in mice: involvement of oxidative burdens in the hippocampus and cerebral cortex. Behavioural Brain Research (2004) 155: 185-196) to induce the AD model. Aged Aβ1-40 solution is injected into the right cerebral ventricle. […] However, on the 1st day of test, this increased escape latency is shortened in all drug-treated groups except the group treated with 15 mg/kg of 6-mer. And the escape latency of 60 mg/kg 6-mer-treated group has statistical significance compared with that of the model group (P<0.05). On the 2nd and 3rd day of test, the escape latency of all drug-treated groups are shortened, wherein that of 60 mg/kg 6-mer-treated group and HBY-treated group have statistical significance compared with that of the model group (P<0.05).
On the 4th day of Morris water maze test, the original plate is removed and the percentage of time of mice staying at the phase of original plate within 60 s is recorded.

[2] = system: AD mice induced by Aβ1-40; assay: Step-through passive avoidance task of AD mice induced by Aβ1-40; assay type: in vivo
Description: as §1
On the 25th day after Aβ injection, mice are further trained for step-through passive avoidance task. In the task, each mouse is placed in the illuminated compartment of the apparatus, facing away from the dark compartment, and the door is opened, allowing access to the dark compartment. Once the mouse enters the dark compartment, it receives an inescapable electric shock on the feet (36 V) through the stainless steel grid floor. The test is similarly performed after 24 h. The entry time of each mouse into the dark chamber (step-through latency, maximum testing limited to 3 min) and the number of entries into the dark compartment (number of errors) are recorded.
Each group has 8 animals. The data are presented as mean±SE. The symbol # means significant difference compared with the control group (P<0.05). * means significant difference compared with the model group (P<0.05). The step-through latency of Aβ1-40-treated group is shortened (P<0.01) and the error number is increased (P<0.05) compared with that of the control group, indicating the successful establishment of AD mice.

SOD = SOD activity of cerebral cortex and hippocampus of Aβ1-40-induced AD mice; assay type: in vivo
SH-SY5Y cells = assay: Protection of SH-SY5Y cells impaired by Aβ25-35 and Aβ1-40; assay type: cell-based; settings: 50 and 100 μg/ml; 30 μM aged Aβ25-35 or 2 μM Aβ1-40 for 48 h (FIG. 7, 8)
Description: 6-mer has similar protective effects on neuron cell line SH-SY5Y as the primary neurons. SH-SY5Y impaired with 30 μM of aged Aβ25-35 (FIG. 7) and 2 μM of Aβ1-40 (FIG. 8) for 48 h could induce a series of changes, for example, damage to the cells, reduced number of cells, occurrence of some round cells and suspension cells. Further, the survival rate of the cells is reduced to 73.3±9.4% and 64.1±2.5% respectively.

Aβ1-40 fibril = Aβ1-40 fibril (Homo sapiens, UniProt P05067); assay: Destability of preformed Aβ1-40 fibril (TEM); assay type: biochemical; settings: Aβ1-40 aged 7 d, then 6-mer for additional 3 days (FIG. 10C)
Description: 1 mg/ml of distilled water-resolved Aβ1-40 is aged at 37° C. for 7d, after which it is exposed to 6-mer for 3 days.

Aβ1-40 = Aβ1-40 (Homo sapiens, UniProt P05067); assay: SPR interaction of immobilized 6-mer and aged Aβ1-40; assay type: binding
Description: SPR technique (BIAcore X, Uppsala, Sweden) is used to characterize the interaction of 6-mer and Aβ. Different degree of aged Aβ1-40 (aged for 0, 0.5, 1, 2, 4, 6 d at 37° C.) in HBS EP buffer solution (0.01 […], 150 mmol/L NaCl, 3.4 mmol/L EDTA-Na2, 0.005 vol % Tween-20, pH 7.4) with 5 concentrations are flowed through the 6-mer-immobilized sensor chip. The flow rate is 5 μl/min, and the injection volume is 10 μl. The binding sensorgramm is recorded and the sensor chip is regenerated with 2M NaCl.

[3] = system: diabetic mice induced by STZ; assay: Blood glucose of diabetic mice induced by streptozotocin (STZ); assay type: in vivo; settings: blood on 11th day, STZ 150 mg/kg i.p.
Description: Sixty male NIH mice (weighed 18-22 g) are randomly divided to control, model, 50, 150, 450 mg/kg 6-mer-treated and 5 mg/kg dimethyldiguanide-treated groups. The mice are injected intraperitoneally with 150 mg/kg STZ except control group at the 1st day. Then the mice are given accordingly drugs consecutively for 10 days and eyeballs are picked out to extract blood on the 11th day. The blood is taken to measure the glucose concentration.

Chain of Aβ1-40 (P05067 672-711 limits assumed): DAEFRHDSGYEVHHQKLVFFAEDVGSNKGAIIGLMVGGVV
Chain of Aβ1-40 fibril (P05067 672-711 limits assumed): as above

For `O=C(O)C1OC(OC2C(C(=O)O)OC(OC3C(C(=O)O)OC(OC4C(C(=O)O)OC(OC5C(C(=O)O)OC(OC6C(C(=O)O)OC(O)C(O)C6O)C(O)C5O)C(O)C4O)C(O)C3O)C(O)C2O)C(O)C(O)C1O` (stereo not shown) [6-mer, mannuronic hexasaccharide], the “Escape latency (s) 1st day” value ([1]; 6-mer 15 mg/kg oral once a day) was 90.07 ± 10.71 s, the “Escape latency (s) 2nd day” value ([1]; 6-mer 15 mg/kg oral once a day) was 83.29 ± 9.53 s and the “Escape latency (s) 3rd day” value ([1]; 6-mer 15 mg/kg oral once a day) was 72.83 ± 12.50 s. The “Escape latency (s) 1st day” value ([1]; 6-mer 30 mg/kg oral once a day) was 77.71 ± 8.69 s, the “Escape latency (s) 2nd day” value ([1]; 6-mer 30 mg/kg oral once a day) was 71.69 ± 10.11 s and the “Escape latency (s) 3rd day” value ([1]; 6-mer 30 mg/kg oral once a day) was 68.45 ± 14.46 s. For the same molecule, the “Escape latency (s) 1st day” value ([1]; 6-mer 60 mg/kg oral once a day) was 56.92 ± 9.92 s, the “Escape latency (s) 2nd day” value ([1]; 6-mer 60 mg/kg oral once a day) was 63.57 ± 10.54 s and the “Escape latency (s) 3rd day” value ([1]; 6-mer 60 mg/kg oral once a day) was 62.50 ± 13.10 s. The “Latency bias(%)” value ([1]; 15 mg/kg) was 19.67 ± 5.15%, the “Latency bias(%)” value ([1]; 30 mg/kg) was 22.99 ± 5.79% and the “Latency bias(%)” value ([1]; 60 mg/kg) was 28.44 ± 6.08 %. For the same molecule, the number of errors ([2]; 6-mer-treated groups, vs model group (FIG. 6)) was “significantly reduced”, the step-through latency ([2]; 30 and 60 mg/kg 6-mer, vs model group (FIG. 5)) was “significantly prolonged” and the “SOD activity (NU/mg prot.) cerebral cortex” value (SOD; 15 mg/kg) was 49.35 ± 2.27 NU/mg prot. The “SOD activity (NU/mg prot.) cerebral cortex” value (SOD; 30 mg/kg) was 51.84 ± 2.07 NU/mg prot, the “SOD activity (NU/mg prot.) cerebral cortex” value (SOD; 60 mg/kg) was 57.50 ± 2.51 NU/mg prot and the “SOD activity (NU/mg prot.) hippocampus” value (SOD; 15 mg/kg) was 69.76 ± 6.12 NU/mg prot. For the same molecule, the “SOD activity (NU/mg prot.) hippocampus” value (SOD; 30 mg/kg) was 61.72 ± 4.27 NU/mg prot, the “SOD activity (NU/mg prot.) hippocampus” value (SOD; 60 mg/kg) was 79.97 ± 7.34 NU/mg prot and the “neurotoxicity of Aβ (survival rate, suspension cells)” value (SH-SY5Y cells) was “significantly inhibit the neurotoxicity of Aβ”. For the same molecule, the “effect on preformed Aβ1-40 fibers (TEM)” value (Aβ1-40 fibril) was “turned into small irregular short fibers”, the Kd (Aβ1-40; Aβ1-40 aged 0.5 d at 37° C.) was 107 nM and the Kd (Aβ1-40; Aβ1-40 aged 1 d at 37° C.) was 90.6 nM. The Kd (Aβ1-40; Aβ1-40 aged 2 d at 37° C.) was 54.3 nM, the Kd (Aβ1-40; Aβ1-40 aged 4 d at 37° C.) was 21.5 nM and the Kd (Aβ1-40; Aβ1-40 aged 6 d at 37° C.) was 14.5 nM. For the same molecule, the Kd (Aβ1-40; fresh Aβ1-40 (aged 0 d)) was 685 nM, the “Blood glucose concentration” value ([3]; 50 mg/kg for 10 days) was 219.4 ± 67.8 mg/dL and the “Blood glucose concentration” value ([3]; 150 mg/kg for 10 days) was 179.6 ± 69.8 mg/dL. For the same molecule, the “Blood glucose concentration” value ([3]; 450 mg/kg for 10 days) was 162.5 ± 3 mg/dL.
